pIC50: −log10 of the molar value. Structures can show the parent of a compound that is named as a salt.
Experiments:
NLRP3 [1] = target: T1, NLRP3 (Homo sapiens, UniProt Q96P20); test: Human whole blood IL-1β release assay (LPS + nigericin, AlphaLisa); format: cell-based; parameters: Plate out 80 μl of whole blood containing 1 μg/ml of LPS in 96-well, clear bottom cell culture plate; from tissue; host or cells: human whole blood from healthy donors (Li-heparin); conditions: NLRP3 inhibitory activity in human whole blood, 1 μg/ml LPS, 10 μM nigericin, read-out: HWB IC50
Description: For systemic delivery, the ability to inhibit NLRP3 when the compounds are present within the bloodstream is of great importance. For this reason, the NLRP3 inhibitory activity of a number of compounds in human whole blood was investigated in accordance with the following protocol.
Human whole blood in Li-heparin tubes was obtained from healthy donors from a volunteer donor panel. • 1. Plate out 80 μl of whole blood containing 1 μg/ml of LPS in 96-well, clear bottom cell culture plate (Corning #3585) • 2. Add 10 μl compound (8 points half-log dilution with 10 μM top dose) or vehicle (DMSO 0.1% FAC) to the appropriate wells • 3. Incubate for 3 hrs at 37° C., 5% CO2 • 4. Add 10 μl nigericin (Sigma #N7143) (10 μM FAC) to all wells • 5. Incubate for 1 hr at 37° C., 5% CO2 • 6. At the end of the incubation period, spin plates at 300×g for 5 mins to pellet cells and remove 20 μl of supernatant and add to 96-well v-bottom plates for IL-1β analysis (note: these plates containing the supernatants can be stored at −80° C. to be analysed at a later date) • 7. IL-1β was measured according to the manufacturer protocol (Perkin Elmer-AlphaLisa IL-1 Kit AL220F-5000) • 8. IC50 data is fitted to a non-linear regression equation (log inhibitor vs response-variable slope 4-parameters)

NLRP3 [2] = target: T1, NLRP3; test: THP-1 cells pyroptosis assay (LPS-primed, nigericin-triggered, resazurin readout); format: cell-based; parameters: Seed THP-1 cells (25,000 cells/well) containing 1.0 μg/ml LPS in 40 μl of RPMI medium; host or cells: THP-1 cells, LPS-primed, nigericin-triggered; conditions: NLRP3 inhibitory activity in THP-1 cells, 1.0 μg/ml LPS, 5 μM nigericin
Description: THP-1 cells (ATCC #TIB-202) were grown in RPMI containing L-glutamine (Gibco #11835) supplemented with ImM sodium pyruvate (Sigma #S8636) and penicillin (100 units/ml)/streptomycin (0.1 mg/ml) (Sigma #P4333) in 10% Fetal Bovine Serum (FBS) (Sigma #F0804). The cells were routinely passaged and grown to confluency ([…]). On the day of the experiment, THP-1 cells were harvested and resuspended into RPMI medium (without FBS). The cells were then counted and viability (>90%) checked by Trypan blue (Sigma #T8154). Appropriate dilutions were made to give a concentration of 625,000 cells/ml. To this diluted cell solution was added LPS (Sigma #L4524) to give a 1 μg/ml Final Assay Concentration (FAC). […] of the final preparation was aliquoted into each well of a 96-well plate. The plate thus prepared was used for compound screening.
The following method step-by-step assay was followed for compound screening. • 1. Seed THP-1 cells (25,000 cells/well) containing 1.0 μg/ml LPS in 40 μl of RPMI medium (without FBS) in 96-well, black walled, clear bottom cell culture plates coated with poly-D-lysine (VWR #734-0317) • 2. Add 5 μl compound (8 points half-log dilution, with 10 μM top dose) or vehicle (DMSO 0.1% FAC) to the appropriate wells • 3. Incubate for 3 hrs at 37° C. in 5% CO2 • 4. Add 5 μl nigericin (Sigma #N7143) (FAC 5 μM) to all wells • 5. Incubate for 1 hr at 37° C. and 5% CO2 • 6. At the end of the incubation period, spin plates at 300×g for 3 mins and remove supernatant • 7. Then add 50 μl of resazurin (Sigma #R7017) (FAC 100 μM resazurin in RPMI medium without FBS) and incubate plates for a further 1-2 hrs at 37° C. and 5% CO2 • 8. Plates were read in an Envision reader at Ex 560 nm and Em 590 nm • 9. IC50 data is fitted to a non-linear regression equation (log inhibitor vs response-variable slope 4-parameters)

T1 sequence (Q96P20 whole entry): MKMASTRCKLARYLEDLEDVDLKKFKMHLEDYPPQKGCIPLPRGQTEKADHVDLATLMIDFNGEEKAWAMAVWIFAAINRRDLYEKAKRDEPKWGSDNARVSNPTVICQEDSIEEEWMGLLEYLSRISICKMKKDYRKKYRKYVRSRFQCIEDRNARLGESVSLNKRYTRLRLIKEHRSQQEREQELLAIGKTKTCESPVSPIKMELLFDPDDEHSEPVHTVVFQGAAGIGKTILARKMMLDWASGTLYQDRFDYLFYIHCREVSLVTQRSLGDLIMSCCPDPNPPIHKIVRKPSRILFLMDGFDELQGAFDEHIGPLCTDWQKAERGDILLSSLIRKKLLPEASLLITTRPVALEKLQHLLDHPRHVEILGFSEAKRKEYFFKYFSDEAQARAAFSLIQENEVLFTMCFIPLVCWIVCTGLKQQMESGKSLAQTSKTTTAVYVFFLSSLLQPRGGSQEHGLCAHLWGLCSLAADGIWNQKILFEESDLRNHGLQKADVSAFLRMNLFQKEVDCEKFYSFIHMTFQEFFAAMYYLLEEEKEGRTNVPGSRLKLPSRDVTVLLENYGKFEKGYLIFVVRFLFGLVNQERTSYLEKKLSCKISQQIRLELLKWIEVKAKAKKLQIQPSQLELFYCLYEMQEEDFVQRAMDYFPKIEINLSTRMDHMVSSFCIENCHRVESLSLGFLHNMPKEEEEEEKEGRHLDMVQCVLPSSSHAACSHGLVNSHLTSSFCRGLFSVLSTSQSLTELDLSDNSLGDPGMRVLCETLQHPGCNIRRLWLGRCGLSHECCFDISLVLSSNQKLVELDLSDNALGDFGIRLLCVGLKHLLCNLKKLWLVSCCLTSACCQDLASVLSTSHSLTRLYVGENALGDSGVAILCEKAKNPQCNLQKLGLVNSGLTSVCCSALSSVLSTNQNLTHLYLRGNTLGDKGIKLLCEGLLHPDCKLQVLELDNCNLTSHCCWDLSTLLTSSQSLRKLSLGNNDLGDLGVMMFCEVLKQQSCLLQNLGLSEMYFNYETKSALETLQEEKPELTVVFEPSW

Compound	pIC50 (NLRP3 [1])	pIC50 (NLRP3 [2])
O=C(Nc1c2c(cc3c1CCC3)CCC2)NS(=O)(=O)Cc1ccccc1 [Example 1, N-((1,2,3,5,6,7-Hexahydro-s-indacen-4-yl)carbamoyl)-1-phenyl Methanesulfonamide, Potassium Salt]	≥ 5.30	≥ 6.00
CC(C)CS(=O)(=O)NC(=O)Nc1c2c(cc3c1CCC3)CCC2 [Example 2, N-((1,2,3,5,6,7-Hexahydro-s-indacen-4-yl)carbamoyl)-2-methylpropane-1-sulfonamide, Potassium Salt]	–	≥ 6.00
C=CS(=O)(=O)NC(=O)Nc1c2c(cc3c1CCC3)CCC2 [Example 3, N-((1,2,3,5,6,7-Hexahydro-s-indacen-4-yl)carbamoyl)ethenesulfonamide]	≥ 5.30	≥ 6.00
O=C(Nc1c2c(cc3c1CCC3)CCC2)NS(=O)(=O)Cc1cc(Cl)cc(Cl)c1 [Example 4, 1-(3,5-Dichlorophenyl)-N-((1,2,3,5,6,7-hexahydro-s-indacen-4-yl)carbamoyl)methanesulfonamide, Sodium Salt]	< 5.00	≥ 6.00
O=C(Nc1c2c(cc3c1CCC3)CCC2)NS(=O)(=O)Cc1ccc(Cl)cc1 [Example 5, 1-(4-Chlorophenyl)-N-((1,2,3,5,6,7-hexahydro-s-indacen-4-yl)carbamoyl)methanesulfonamide, Sodium Salt]	5.12 to 5.30	≥ 6.00
O=C(Nc1c2c(cc3c1CCC3)CCC2)NS(=O)(=O)Cc1ccc(Cl)c(Cl)c1 [Example 6, 1-(3,4-Dichlorophenyl)-N-((1,2,3,5,6,7-hexahydro-s-indacen-4-yl)carbamoyl)methanesulfonamide, Sodium Salt]	< 5.00	≥ 6.00
O=C(Nc1c2c(cc3c1CCC3)CCC2)NS(=O)(=O)Cc1ccc(F)cc1 [Example 7, 1-(4-Fluorophenyl)-N-((1,2,3,5,6,7-hexahydro-s-indacen-4-yl)carbamoyl)methanesulfonamide, Sodium Salt]	≥ 5.30	≥ 6.00
N#Cc1ccc(CS(=O)(=O)NC(=O)Nc2c3c(cc4c2CCC4)CCC3)cc1 [Example 8, 1-(4-Cyanophenyl)-N-((1,2,3,5,6,7-hexahydro-s-indacen-4-yl)carbamoyl)methanesulfonamide, Sodium Salt]	≥ 5.30	≥ 6.00
COC(=O)c1ccc(CS(=O)(=O)NC(=O)Nc2c3c(cc4c2CCC4)CCC3)cc1 [Example 9, Methyl 4-((N-((1,2,3,5,6,7-hexahydro-s-indacen-4-yl)carbamoyl)sulfamoyl)methyl)benzoate, Sodium Salt]	≥ 5.30	≥ 6.00
O=C(Nc1c2c(cc3c1CCC3)CCC2)NS(=O)(=O)Cc1ccc(C(F)(F)F)cc1 [Example 10, N-((1,2,3,5,6,7-Hexahydro-s-indacen-4-yl)carbamoyl)-1-(4-(trifluoromethyl)phenyl)methanesulfonamide, Sodium Salt]	5.12 to 5.30	≥ 6.00
COc1cccc(CS(=O)(=O)NC(=O)Nc2c3c(cc4c2CCC4)CCC3)c1 [Example 11, N-((1,2,3,5,6,7-Hexahydro-s-indacen-4-yl)carbamoyl)-1-(3-methoxyphenyl)methanesulfonamide, Sodium Salt]	5.00 to 5.12	≥ 6.00
O=C(Nc1c2c(cc3c1CCC3)CCC2)NS(=O)(=O)Cc1ccc(Cl)cc1F [Example 12, 1-(4-Chloro-2-fluorophenyl)-N-((1,2,3,5,6,7-hexahydro-s-indacen-4-yl)carbamoyl)methanesulfonamide, Sodium Salt]	< 5.00	≥ 6.00
O=C(Nc1c2c(cc3c1CCC3)CCC2)NS(=O)(=O)Cc1ccc(Cl)c(F)c1 [Example 13, 1-(4-Chloro-3-fluorophenyl)-N-((1,2,3,5,6,7-hexahydro-s-indacen-4-yl)carbamoyl)methanesulfonamide, Sodium Salt]	< 5.00	≥ 6.00
Cc1ccc(CS(=O)(=O)NC(=O)Nc2c3c(cc4c2CCC4)CCC3)cc1 [Example 14, N-((1,2,3,5,6,7-Hexahydro-s-indacen-4-yl)carbamoyl)-1-(p-tolyl)methanesulfonamide, Sodium Salt]	5.12 to 5.30	≥ 6.00
O=C(Nc1c2c(cc3c1CCC3)CCC2)NS(=O)(=O)Cc1ccccc1Cl [Example 15, 1-(2-Chlorophenyl)-N-((1,2,3,5,6,7-hexahydro-s-indacen-4-yl)carbamoyl)methanesulfonamide, Sodium Salt]	< 5.00	≥ 6.00
O=C(Nc1c2c(cc3c1CCC3)CCC2)NS(=O)(=O)Cc1ccccc1C(F)(F)F [Example 16, N-((1,2,3,5,6,7-Hexahydro-s-indacen-4-yl)carbamoyl)-1-(2-(trifluoromethyl)phenyl)methanesulfonamide, Sodium Salt]	–	≥ 6.00
O=C(Nc1c2c(cc3c1CCC3)CCC2)NS(=O)(=O)Cc1ccccc1Br [Example 17, 1-(2-Bromophenyl)-N-((1,2,3,5,6,7-hexahydro-s-indacen-4-yl)carbamoyl)methanesulfonamide, Sodium Salt]	–	≥ 6.00
COC(=O)c1ccccc1CS(=O)(=O)NC(=O)Nc1c2c(cc3c1CCC3)CCC2 [Example 18, Methyl 2-((N-((1,2,3,5,6,7-hexahydro-s-indacen-4-yl)carbamoyl)sulfamoyl)methyl)benzoate]	–	≥ 6.00
O=C(Nc1c2c(cc3c1CCC3)CCC2)NS(=O)(=O)Cc1cccc(Br)c1 [Example 19, 1-(3-Bromophenyl)-N-((1,2,3,5,6,7-hexahydro-s-indacen-4-yl)carbamoyl)methanesulfonamide, Sodium Salt]	< 5.00	≥ 6.00
Cc1cccc(CS(=O)(=O)NC(=O)Nc2c3c(cc4c2CCC4)CCC3)c1 [Example 20, N-((1,2,3,5,6,7-Hexahydro-s-indacen-4-yl)carbamoyl)-1-(m-tolyl)methanesulfonamide, Sodium Salt]	5.12 to 5.30	≥ 6.00
[N-]=[N+]=NCCCS(=O)(=O)NC(=O)Nc1c2c(cc3c1CCC3)CCC2 [Example 21, 3-Azido-N-((1,2,3,5,6,7-hexahydro-s-indacen-4-yl)carbamoyl) propane-1-sulfonamide, Potassium Salt]	≥ 5.30	≥ 6.00
O=C(Nc1c(-c2ccncc2)cc(F)c2c1CCC2)NS(=O)(=O)Cc1ccccc1 [Example 25, N-((7-Fluoro-5-(pyridin-4-yl)-2,3-dihydro-1H-inden-4-yl)carbamoyl)-1-phenylmethanesulfonamide]	–	5.00 to 5.70
O=C(Nc1c(-c2ccncc2)cc(F)c2c1CCC2)NS(=O)(=O)CCc1ccccc1 [Example 33, N-((7-Fluoro-5-(pyridin-4-yl)-2,3-dihydro-1H-inden-4-yl)carbamoyl)-2-phenylethanesulfonamide]	5.12 to 5.30	–
CC(C)c1cc(F)cc(-c2ccnc(C#N)c2)c1NC(=O)NS(=O)(=O)C(C)c1ccccc1 (stereo not shown) [Example 34, N-((2-(2-Cyanopyridin-4-yl)-4-fluoro-6-isopropylphenyl)carbamoyl)-1-phenylethanesulfonamide]	–	5.00 to 5.70
CC(c1ccccc1)S(=O)(=O)NC(=O)Nc1c2c(cc3c1CCC3)CCC2 (stereo not shown) [Example 39, N-((1,2,3,5,6,7-Hexahydro-s-indacen-4-yl)carbamoyl)-1-phenylethanesulfonamide]	5.00 to 5.12	≥ 6.00

Source: US11518739B2, “Sulfonamide carboxamide compounds” (Inflazome Limited, priority 2017, dated 2022)
